Data taken from patent US20240000783A1, “COMBINATION THERAPY” (Pfizer Inc., priority 2020, published 2024).

Test system: LNCaP prostate cancer cells (AR+ spheroids)
Assay: Multicellular tumor spheroid growth assay
Assay type: cell-based
Conditions: Homo sapiens, single agent, read-out: SGI % (percent spheroid growth inhibition); for inhibition at 0.1 µM: 100 nM; for inhibition at 1 µM: 1000 nM
Description: Example 1—Multicellular Tumor Spheroid Growth Assay in Human AR+ Prostate Cancer Cells (LNCaP) LNCaP prostate cancer cells were obtained from the ATCC and maintained in RPMI 1640 medium supplemented with 10% fetal bovine serum and penicillin-streptomycin as per ATCC guidelines. Cells were maintained in humidified incubator at 37° C. with 5% CO2. Spheroid assays were performed in 96 well ultralow attachment plates (ULA-96U) from Nexcelom & Thermo Fisher Scientific. […] To aid spheroid formation, dispensed cells were centrifuged at 220×g for 6 minutes in the ultralow attachment plates and allowed to form compact spheroids for 4 days prior to the initiation of treatment. After spheroids were formed, 150 μL of medium was aspirated from each well without disturbing the spheroid, and fresh RPMI medium of the same volume was added containing single agent compounds (palbociclib, COMPOUND A, or enzalutamide), or selected combinations thereof. Final concentrations of each compound in the wells were: 30 or 100 nM for palbociclib; 100, 300 or 1000 nM for COMPOUND A; and 1000 nM for enzalutamide. DMSO (0.01%) was used as the vehicle control. DMSO and all compounds were diluted in cell medium. Medium and compounds were replenished twice per week, with 3 and 4-day intervals. Replenishment was executed by aspirating 150 μL of medium per well without disturbing the spheroid and then adding the same volume of premixed medium/compound solution to spheroids. In some cases, an extended phase of treatment was followed by a ‘recovery’ phase where medium was replenished without addition of compounds. Spheroid diameter was quantified immediately following each medium change twice a week (on every 3rd or 4th day) throughout the duration of the assay. Growth of these MCTS was monitored over time to assess: (i) amplitude of response (SGI) and (ii) duration of response to single agents and combination treatments while on treatment. Average diameters of tumor spheroids were plotted in GraphPad Prism 8 and the area-under-curve (AUC) was calculated. AUC baseline was determined by the average tumor spheroid diameter at Day 0 in the vehicle (DMSO) controls. Spheroid growth inhibition, SGI, for all treatment arms was derived at the timepoint when the vehicle (DMSO) treated spheroids reach their maximal diameter (usually close to 1 mm but this can differ among cell lines); this corresponds to the last time point taken for the vehicle (DMSO) treated spheroids. SEM calculated based on n=10 to 12 wells per test group. Percent spheroid growth inhibition, or SGI %, was calculated as follows: SGI %=(1-AUC treatment/AUC DMSO)×100%.

Row | SMILES | inhibition at 0.1 µM [%] | inhibition at 0.3 µM (300 nM) [%] | inhibition at 1 µM [%] | inhibition at 0.03 µM (30 nM) [%]
1 | CC(C)n1c(C(C)(C)O)nc2c(F)cc(-c3nc(N[C@@H]4CCOC[C@H]4O)ncc3Cl)cc21 [COMPOUND A, 1,5-anhydro-3-({5-chloro-4-[4-fluoro-2-(2-hydroxypropan-2-yl)-1-(propan-2-yl)-1H-benzimidazol-6-yl]pyrimidin-2-yl}amino)-2,3-dideoxy-D-threo-pentitol] | 27 | 38 | 53 | –
2 | CC(=O)c1c(C)c2cnc(Nc3ccc(N4CCNCC4)cn3)nc2n(C2CCCC2)c1=O [palbociclib] | 24 | – | – | 5
3 | CNC(=O)c1ccc(N2C(=S)N(c3ccc(C#N)c(C(F)(F)F)c3)C(=O)C2(C)C)cc1F [enzalutamide, 4-[3-[4-cyano-3-(trifluoromethyl)phenyl]-5,5-dimethyl-4-oxo-2-thioxo-1-imidazolidinyl]-2-fluoro-N-methyl-benzamide] | – | – | 46 | –
